{
  "source": "the supplement of paper PMC10307832",
  "experiment_in_all_cases": "relative viability (nuclei count vs DMSO), 5 days (fraction); higher = more cells survive",
  "key": {"[1]": {"test_system": "201T", "summary_of_the_method": "(§1)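 The day after seeding in 1536-well plates, lung cancer cell lines were treated by pin tool with a single drug, or with a fixed anchor-drug dose together with five library-drug doses (not always all listed) in √10 steps. After 5 days, a combined fix-and-stain solution (final 0.05% Triton X-100, 1% formaldehyde, 1 ug/ml Hoechst) was added. Nuclei counted on 4× images gave relative viability as treated counts over vehicle counts, reported as the median of duplicate plates.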"}, "[2]": {"test_system": "COR-L23", "summary_of_the_method": "as §1"}, "[3]": {"test_system": "H3255", "summary_of_the_method": "as §1"}, "[4]": {"test_system": "HARA", "summary_of_the_method": "as §1"}, "[5]": {"test_system": "LU99A", "summary_of_the_method": "as §1"}, "[6]": {"test_system": "NCI-H1650", "summary_of_the_method": "as §1"}, "[7]": {"test_system": "NCI-H1651", "summary_of_the_method": "as §1"}, "[8]": {"test_system": "NCI-H1755", "summary_of_the_method": "as §1"}, "[9]": {"test_system": "NCI-H1793", "summary_of_the_method": "as §1"}, "[10]": {"test_system": "NCI-H2085", "summary_of_the_method": "as §1"}, "[11]": {"test_system": "NCI-H2087", "summary_of_the_method": "as §1"}, "[12]": {"test_system": "NCI-H23", "summary_of_the_method": "as §1"}, "[13]": {"test_system": "NCI-H3122", "summary_of_the_method": "as §1"}, "[14]": {"test_system": "NCI-H322M", "summary_of_the_method": "as §1"}, "[15]": {"test_system": "NCI-H358", "summary_of_the_method": "as §1"}, "[16]": {"test_system": "NCI-H460", "summary_of_the_method": "as §1"}, "[17]": {"test_system": "NCI-H522", "summary_of_the_method": "as §1"}, "[18]": {"test_system": "NCI-H596", "summary_of_the_method": "as §1"}, "[19]": {"test_system": "NCI-H650", "summary_of_the_method": "as §1"}, "[20]": {"test_system": "PC-3 [JPC-3]", "summary_of_the_method": "as §1"}, "[21]": {"test_system": "SK-LU-1", "summary_of_the_method": "as §1"}},
  "data": [
    {"molecule": "CN1CCN(CCOc2cc(OC3CCOCC3)c3c(Nc4c(Cl)ccc5c4OCO5)ncnc3c2)CC1", "note": "[Saracatinib] + CCNC(=O)c1noc(-c2cc(C(C)C)c(O)cc2O)c1-c1ccc(CN2CCOCC2)cc1 [Luminespib] (partner 0.01 µM)", "values": [
      {"measurement": "relative viability", "setting": "[1]; first compound 0.02 µM", "result": 1.05},
      {"measurement": "relative viability", "setting": "[1]; first compound 0.2 µM", "result": 0.956},
      {"measurement": "relative viability", "setting": "[1]; first compound 0.6325 µM", "result": 0.965},
      {"measurement": "relative viability", "setting": "[1]; first compound 2 µM", "result": 0.832},
      {"measurement": "relative viability", "setting": "[2]; first compound 0.02 µM", "result": 0.694},
      {"measurement": "relative viability", "setting": "[2]; first compound 0.2 µM", "result": 0.605},
      {"measurement": "relative viability", "setting": "[2]; first compound 0.6325 µM", "result": 0.575},
      {"measurement": "relative viability", "setting": "[2]; first compound 2 µM", "result": 0.558},
      {"measurement": "relative viability", "setting": "[3]; first compound 0.02 µM", "result": 0.91},
      {"measurement": "relative viability", "setting": "[3]; first compound 0.2 µM", "result": 0.914},
      {"measurement": "relative viability", "setting": "[3]; first compound 0.6325 µM", "result": 0.745},
      {"measurement": "relative viability", "setting": "[3]; first compound 2 µM", "result": 0.477},
      {"measurement": "relative viability", "setting": "[4]; first compound 0.02 µM", "result": 0.686},
      {"measurement": "relative viability", "setting": "[4]; first compound 0.2 µM", "result": 0.606},
      {"measurement": "relative viability", "setting": "[4]; first compound 0.6325 µM", "result": 0.485},
      {"measurement": "relative viability", "setting": "[4]; first compound 2 µM", "result": 0.367},
      {"measurement": "relative viability", "setting": "[5]; first compound 0.02 µM", "result": 0.214},
      {"measurement": "relative viability", "setting": "[5]; first compound 0.2 µM", "result": 0.203},
      {"measurement": "relative viability", "setting": "[5]; first compound 0.6325 µM", "result": 0.26},
      {"measurement": "relative viability", "setting": "[5]; first compound 2 µM", "result": 0.232},
      {"measurement": "relative viability", "setting": "[6]; first compound 0.02 µM", "result": 0.188},
      {"measurement": "relative viability", "setting": "[6]; first compound 0.2 µM", "result": 0.187},
      {"measurement": "relative viability", "setting": "[6]; first compound 0.6325 µM", "result": 0.188},
      {"measurement": "relative viability", "setting": "[6]; first compound 2 µM", "result": 0.221},
      {"measurement": "relative viability", "setting": "[7]; first compound 0.02 µM", "result": 0.912},
      {"measurement": "relative viability", "setting": "[7]; first compound 0.2 µM", "result": 0.516},
      {"measurement": "relative viability", "setting": "[7]; first compound 0.6325 µM", "result": 0.965},
      {"measurement": "relative viability", "setting": "[7]; first compound 2 µM", "result": 0.837},
      {"measurement": "relative viability", "setting": "[8]; first compound 0.02 µM", "result": 0.456},
      {"measurement": "relative viability", "setting": "[8]; first compound 0.2 µM", "result": 0.329},
      {"measurement": "relative viability", "setting": "[8]; first compound 0.6325 µM", "result": 0.447},
      {"measurement": "relative viability", "setting": "[8]; first compound 2 µM", "result": 0.414},
      {"measurement": "relative viability", "setting": "[9]; first compound 0.02 µM", "result": 0.2},
      {"measurement": "relative viability", "setting": "[9]; first compound 0.6325 µM", "result": 0.173},
      {"measurement": "relative viability", "setting": "[9]; first compound 2 µM", "result": 0.177},
      {"measurement": "relative viability", "setting": "[10]; first compound 0.02 µM", "result": 0.411},
      {"measurement": "relative viability", "setting": "[10]; first compound 0.2 µM", "result": 0.347},
      {"measurement": "relative viability", "setting": "[10]; first compound 0.6325 µM", "result": 0.481},
      {"measurement": "relative viability", "setting": "[10]; first compound 2 µM", "result": 0.429},
      {"measurement": "relative viability", "setting": "[11]; first compound 0.02 µM", "result": 0.143},
      {"measurement": "relative viability", "setting": "[11]; first compound 0.2 µM", "result": 0.18},
      {"measurement": "relative viability", "setting": "[11]; first compound 0.6325 µM", "result": 0.166},
      {"measurement": "relative viability", "setting": "[11]; first compound 2 µM", "result": 0.253},
      {"measurement": "relative viability", "setting": "[12]; first compound 0.02 µM", "result": 0.247},
      {"measurement": "relative viability", "setting": "[12]; first compound 0.2 µM", "result": 0.193},
      {"measurement": "relative viability", "setting": "[12]; first compound 0.6325 µM", "result": 0.196},
      {"measurement": "relative viability", "setting": "[12]; first compound 2 µM", "result": 0.219},
      {"measurement": "relative viability", "setting": "[13]; first compound 0.02 µM", "result": 0.0855},
      {"measurement": "relative viability", "setting": "[13]; first compound 0.2 µM", "result": 0.103},
      {"measurement": "relative viability", "setting": "[13]; first compound 0.6325 µM", "result": 0.0549},
      {"measurement": "relative viability", "setting": "[13]; first compound 2 µM", "result": 0.076},
      {"measurement": "relative viability", "setting": "[14]; first compound 0.02 µM", "result": 0.867},
      {"measurement": "relative viability", "setting": "[14]; first compound 0.2 µM", "result": 0.711},
      {"measurement": "relative viability", "setting": "[14]; first compound 0.6325 µM", "result": 0.682},
      {"measurement": "relative viability", "setting": "[14]; first compound 2 µM", "result": 0.378},
      {"measurement": "relative viability", "setting": "[15]; first compound 0.02 µM", "result": 0.174},
      {"measurement": "relative viability", "setting": "[15]; first compound 0.2 µM", "result": 0.208},
      {"measurement": "relative viability", "setting": "[15]; first compound 0.6325 µM", "result": 0.309},
      {"measurement": "relative viability", "setting": "[15]; first compound 2 µM", "result": 0.318},
      {"measurement": "relative viability", "setting": "[16]; first compound 0.02 µM", "result": 0.0378},
      {"measurement": "relative viability", "setting": "[16]; first compound 0.2 µM", "result": 0.0238},
      {"measurement": "relative viability", "setting": "[16]; first compound 0.6325 µM", "result": 0.0253},
      {"measurement": "relative viability", "setting": "[16]; first compound 2 µM", "result": 0.0287},
      {"measurement": "relative viability", "setting": "[17]; first compound 0.02 µM", "result": 1.13},
      {"measurement": "relative viability", "setting": "[17]; first compound 0.2 µM", "result": 0.943},
      {"measurement": "relative viability", "setting": "[17]; first compound 0.6325 µM", "result": 1.11},
      {"measurement": "relative viability", "setting": "[17]; first compound 2 µM", "result": 0.949},
      {"measurement": "relative viability", "setting": "[18]; first compound 0.02 µM", "result": 1.01},
      {"measurement": "relative viability", "setting": "[18]; first compound 0.2 µM", "result": 0.74},
      {"measurement": "relative viability", "setting": "[18]; first compound 0.6325 µM", "result": 0.84},
      {"measurement": "relative viability", "setting": "[18]; first compound 2 µM", "result": 0.715},
      {"measurement": "relative viability", "setting": "[19]; first compound 0.02 µM", "result": 0.685},
      {"measurement": "relative viability", "setting": "[19]; first compound 0.2 µM", "result": 0.613},
      {"measurement": "relative viability", "setting": "[19]; first compound 0.6325 µM", "result": 0.87},
      {"measurement": "relative viability", "setting": "[19]; first compound 2 µM", "result": 0.68},
      {"measurement": "relative viability", "setting": "[20]; first compound 0.02 µM", "result": 0.732},
      {"measurement": "relative viability", "setting": "[20]; first compound 0.2 µM", "result": 0.655},
      {"measurement": "relative viability", "setting": "[20]; first compound 0.6325 µM", "result": 0.675},
      {"measurement": "relative viability", "setting": "[20]; first compound 2 µM", "result": 0.537},
      {"measurement": "relative viability", "setting": "[21]; first compound 0.02 µM", "result": 0.232},
      {"measurement": "relative viability", "setting": "[21]; first compound 0.2 µM", "result": 0.139},
      {"measurement": "relative viability", "setting": "[21]; first compound 0.6325 µM", "result": 0.145},
      {"measurement": "relative viability", "setting": "[21]; first compound 2 µM", "result": 0.129}
    ]}
  ]
}
